Test systems include MDA-N; U251 CNS; HCC-2998 colon; MCF7 breast; NCI/ADR-RES ovarian; T-47D breast; OVCAR-5 ovarian; SK-MEL-28 melanoma.
What all share (assay): DTP human tumour cell line panel, 48 h

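Cultured in 96-well plates, cells were exposed to test compound for 48 hours across five concentrations. Definition used: TGI = concentration required for complete inhibition of growth.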

`Cc1cc(C)nc(NS(=O)(=O)c2ccc(NC(=O)c3cccc4c(NNc5ccc(S(=O)(=O)N=C(N)N)cc5)c5ccccc5nc34)cc2)n1`: the TGI in the test with MDA-N, in the test with U251 CNS, with HCC-2998 colon, in the test with MCF7 breast, with NCI/ADR-RES ovarian and with T-47D breast was more than 50 µM each time.

`C/C(=N\Nc1nc2ccccc2s1)c1ccc2ccccc2n1`: the concentration for total growth inhibition (TGI) in the test with MDA-N, in the test on U251 CNS, in the test with OVCAR-5 ovarian, in the test on SK-MEL-28 melanoma, with MCF7 breast and in the test on NCI/ADR-RES ovarian was more than 100 µM in each case. In addition, in the test on T-47D breast, the concentration for total growth inhibition (TGI) was determined as 53.5 µM.

For `C[C@]12CC[C@@H]3c4ccc(O)cc4CC[C@H]3[C@@H]1C/C(=C\c1ccc(C#N)cc1)C2=O`, the total growth inhibition concentration (TGI) with MDA-N, with U251 CNS, in the test on OVCAR-5 ovarian, in the test with SK-MEL-28 melanoma, in the test on HCC-2998 colon and with MCF7 breast was more than 100 µM throughout. The TGI with NCI/ADR-RES ovarian and in the test on T-47D breast was more than 100 µM in each case.

With `O=C1CS(=O)(=O)C(c2cccc(Oc3ccccc3)c2)N1c1cc(Cl)ccc1Cl` (configuration not stated), the TGI is 35.1 µM in the test on MDA-N; 29.1 µM in the test on U251 CNS; more than 100 µM with OVCAR-5 ovarian; 70.4 µM in the test on SK-MEL-28 melanoma; 37.1 µM in the test on HCC-2998 colon; 35.4 µM in the test with MCF7 breast. The total growth inhibition concentration (TGI) in the test with NCI/ADR-RES ovarian worked out at 77.8 µM; in the test with T-47D breast, 53.2 µM.

For `COc1cc(C(O)c2ccc3c(c2)OCO3)cc(OC)c1OC` (configuration not stated), the concentration for total growth inhibition (TGI) with MDA-N, in the test with U251 CNS, with OVCAR-5 ovarian, in the test on SK-MEL-28 melanoma, with HCC-2998 colon and in the test on MCF7 breast was more than 100 µM in each case. Also, the concentration for total growth inhibition (TGI) in the test on NCI/ADR-RES ovarian and in the test with T-47D breast was more than 100 µM in each case.

With `CCN1C(=O)C(=C/C=C/c2ccc(N(CC)CC)cc2)C(=O)N(CC)C1=S`, the total growth inhibition concentration (TGI) in the test with MDA-N, in the test with U251 CNS, in the test on OVCAR-5 ovarian, in the test with SK-MEL-28 melanoma, in the test on HCC-2998 colon and with MCF7 breast was more than 100 µM in each case. In addition, the TGI in the test on NCI/ADR-RES ovarian and in the test with T-47D breast was more than 100 µM throughout.

For `O=C(CC(C(=O)c1ccco1)c1ccco1)c1ccco1` (configuration not stated), the TGI in the test on MDA-N, in the test on U251 CNS, in the test on OVCAR-5 ovarian, in the test with SK-MEL-28 melanoma, with HCC-2998 colon and with MCF7 breast was more than 100 µM throughout. Further, the concentration for total growth inhibition (TGI) in the test on NCI/ADR-RES ovarian and with T-47D breast was more than 100 µM in each case.

`COC(=O)[C@H](Cc1ccccc1)NC(=O)N(CCC#N)CCN(C(=O)N[C@@H](Cc1ccccc1)C(=O)OC)c1ccccc1`: the concentration for total growth inhibition (TGI) was 33.8 µM with MDA-N; more than 100 µM in the test on OVCAR-5 ovarian; 33.9 µM in the test with SK-MEL-28 melanoma; more than 100 µM with HCC-2998 colon; more than 100 µM with MCF7 breast; more than 100 µM in the test on NCI/ADR-RES ovarian. The compound further gave a TGI with T-47D breast of 41.6 µM.

In the case of `CN(C)c1ccc(Cc2cc3c(O)ccc(O)c3cc(Cc3ccc(N(C)C)cc3)c2=O)cc1`, the TGI in the test with MDA-N is 41 µM; with U251 CNS, 41.4 µM; in the test with OVCAR-5 ovarian, more than 70 µM; with SK-MEL-28 melanoma it was 37.4 µM; in the test on HCC-2998 colon, 64 µM; in the test on MCF7 breast, 58.6 µM. The total growth inhibition concentration (TGI) with NCI/ADR-RES ovarian is more than 81.8 µM; with T-47D breast, 26.8 µM.

`O=[N+]([O-])/C(Cl)=C(\NCCN/C(C(Cl)=C(Cl)Cl)=C(/Cl)[N+](=O)[O-])C(Cl)=C(Cl)Cl`: the TGI with MDA-N, in the test on U251 CNS, in the test on OVCAR-5 ovarian, in the test on SK-MEL-28 melanoma, in the test with HCC-2998 colon and in the test on MCF7 breast was more than 100 µM throughout. The concentration for total growth inhibition (TGI) with NCI/ADR-RES ovarian and in the test with T-47D breast was more than 100 µM throughout.

Turning to `COc1ccc(N2C(=O)C3c4[nH]c5ccccc5c4C4CCCCCCCCCC4C3C2=O)cc1` (configuration not stated), the total growth inhibition concentration (TGI) with MDA-N, in the test with U251 CNS, with OVCAR-5 ovarian, in the test with SK-MEL-28 melanoma, with HCC-2998 colon and in the test on MCF7 breast was more than 10 µM in each case. Further, the TGI in the test on NCI/ADR-RES ovarian and with T-47D breast was more than 10 µM in each case.

In the case of `CCNc1ncnc2sc(SCc3ccccc3)nc12`, the TGI in the test on MDA-N, in the test on U251 CNS, with OVCAR-5 ovarian, with SK-MEL-28 melanoma, with HCC-2998 colon and in the test with MCF7 breast was more than 100 µM each time. The TGI in the test on NCI/ADR-RES ovarian and in the test with T-47D breast was more than 100 µM each time.

Turning to `Cc1c(-c2ccccc2)[nH]n(C2=NCCN2)c1=O`, the TGI in the test on MDA-N, in the test on U251 CNS, in the test on OVCAR-5 ovarian, in the test with MCF7 breast, in the test with NCI/ADR-RES ovarian and in the test with T-47D breast was more than 100 µM each time.

Regarding `COc1ccc(Oc2cnn(C(Br)(Br)C(C)=O)c(=O)c2Br)cc1`, the concentration for total growth inhibition (TGI) in the test on MDA-N was determined as 22.9 µM; in the test on U251 CNS, 27.8 µM; in the test with OVCAR-5 ovarian it was 32.2 µM; in the test with SK-MEL-28 melanoma, 32.4 µM; with HCC-2998 colon it was 30.6 µM; with MCF7 breast, 34.8 µM. Besides, the concentration for total growth inhibition (TGI) in the test with NCI/ADR-RES ovarian was 43.9 µM; with T-47D breast, 61 µM.

On to `S=C1NC2=C(CSC/C2=C\c2ccccc2)C(c2ccccc2)N1` (configuration not stated), for which the concentration for total growth inhibition (TGI) in the test with MDA-N, in the test on U251 CNS, in the test on OVCAR-5 ovarian, in the test with SK-MEL-28 melanoma, in the test with HCC-2998 colon and in the test with MCF7 breast was more than 100 µM throughout. Also, the TGI with NCI/ADR-RES ovarian and with T-47D breast was more than 100 µM throughout.

Regarding `CCOC(=O)c1sc2ncnc(N)c2c1C`, the TGI with MDA-N, in the test with U251 CNS, in the test on OVCAR-5 ovarian, with SK-MEL-28 melanoma, with HCC-2998 colon and in the test with MCF7 breast was more than 100 µM each time. Further, the concentration for total growth inhibition (TGI) with NCI/ADR-RES ovarian and with T-47D breast was more than 100 µM each time.

For orientation: TGI means the concentration giving total growth inhibition. A lower TGI goes with greater sensitivity of the cells.

These data come from PubChem BioAssay (NCI).
